Key:
plasmid DNA = assay: Hypochlorite-induced damage to plasmid DNA; type: biochemical; conditions: SDG 25 μM; 4.5 mM HOCl
Experimental: Calf thymus or plasmid DNA was incubated with hypochlorite for 2 hrs at 37° C. DNA samples were subjected to agarose (1%) gel electrophoresis and analyzed.

[1] = test system: Nrf2-regulated antioxidant enzymes (AOE); assay: SDG dosing study: antioxidant enzyme expression in lung after oral gavage; type: in vivo, mouse
Experimental: SDG doses of 5, 25, 50 and 100 mg/Kg body weight were administered orally to mice (n=5 per dose) and 4 hours later tissues were collected for analysis. Plasma concentrations of SDG and its bioactive metabolites ED, EL and SECO were analyzed by liquid chromatography and mass spectrometry and are expressed in ng/mL (FIG. 39) while gene expression levels of Nrf2-regulated antioxidant enzymes (AOE), an intracellular target of SDG and its metabolites, were determined in lung tissues from the same animals using qRT-PCR (FIG. 40). Gene expression levels of HO1, NQO1 and GST, increased 2-3 fold with as little as 5 mg SDG/Kg and reached an average of 6-fold increase over baseline with 100 mg/Kg SDG.

[2] = test system: mouse peritoneal macrophages; assay: Asbestos-exposed peritoneal macrophages: oxidative/nitrosative stress and cytokine secretion; type: cell-based; conditions: 20 μg/cm^2 asbestos; 25 and 50 μM SDG 3-8 hours post exposure; p<0.05
Experimental: To test the hypothesis that the flaxseed lignan SDG will decrease asbestos-induced inflammation, and oxidative and nitrosative stress, mouse peritoneal macrophages were exposed to varying concentrations of crocidolite asbestos fibers ([…]). At variable times post asbestos exposure (3, 4, 6, and 8 hours), cells were incubated with SDG (50 μM) and supernatants collected 24 hours later to detect inflammatory cytokine secretion and nitrosative/oxidative stress (FIG. 49).
(§1) SDG given to macrophages several hours post exposure to asbestos decreases oxidative stress (FIGS. 52A-52B). Female C57/Bl6 mice were injected with 2 mL of thioglycollate and peritoneal macrophages harvested after 3 days. 2 million cells per well were plated in a 6 well plate and exposed to 20 μg/cm^2 asbestos. Cells were treated with 25 or 50 μM SDG (synthetic SDG) 3, 4, 6, or 8 hours post-asbestos exposure. Cells were harvested 24 hours post-asbestos exposure. Analysis performed on frozen supernatant samples.
as §1, with “Given” for “given”, “Macrophages Several Hours Post Exposure to Asbestos Decreases Nitrosative Stress (FIGS. 53A-53B). To evaluate of SDG in blunting nitrosative stress in cells” for “macrophages several hours”, “post” for “post exposure to”, “exposure, female” for “decreases oxidative stress (FIGS. 52A-52B). Female”
(§2) SDG Given to Macrophages Several Hours Post Exposure to Asbestos Decreases inflammatory cytokine secretion (IL-1β) (FIGS. 54A-54B). To evaluate SDG in blunting inflammatory cytokine secretion (IL-1β) in cells post asbestos exposure, female C57/Bl6 mice were injected with 2 mL of thioglycollate and peritoneal macrophages harvested after 3 days 2 million cells per well were plated in a 6 well plate and exposed to 20 μg/cm^2 asbestos. Cells were treated with 25 or 50 μM SDG (synthetic SDG) 3, 4, 6, or 8 hours post-asbestos exposure. Cells were harvested 24 hours post-asbestos exposure. Analysis performed on fresh supernatant samples.
as §2, with “(TNF-α)” for “(IL-1β)”, “55A-55B).” for “54A-54B).”, “days.” for “days”, “Cells were harvested 24 hours post-asbestos exposure. Analysis performed on fresh supernatant samples.” left out

mouse epithelial cells = assay: BaP-induced ROS generation (redox-sensitive fluorescence dye); type: cell-based; conditions: 10 or 20 μM BaP; 0.1-5 μM SDG; 2 hours
Experimental: Exposure of murine epithelial cells to the tobacco and environmental carcinogen benzo-alpha-pyrene (BaP) induces damaging reactive oxygen species (ROS) as detected by a redox-sensitive fluorescence dye (FIG. 23). As early as 2 hours, post exposure to the carcinogen, a robust increase of fluorescence intensity indicates ROS generation in cells.

[3] = test system: murine primary lung fibroblasts; assay: Morphological detection of apoptotic cells, fibroblasts; type: cell-based, mouse; conditions: SDG pre-treatment; irradiated
Experimental: (§3) Fibroblasts and endothelial cells were isolated from C57/bl6 mouse. For fibroblast isolation, mouse lungs were harvested, minced, and incubated with dispase (2 mg/ml) for 45 minutes. Pieces were plated out and fibroblasts were cultured as described previously and used between passages 3 and 10. Pulmonary microvascular endothelial cells (PMVEC) were isolated from murine lungs as described previously. Briefly, freshly harvested mouse lungs were treated with collagenase followed by isolation of cells by adherence to magnetic beads coated with mAb to platelet endothelial cell adhesion molecule (PECAM). […]
(§4) Apoptotic cells are morphologically characterized by condensation of nucleus and cytoplasm, membrane blebbing, cell shrinkage, and breakdown of nuclear DNA, first in large segments and subsequently in nucleosomal fragments and finally formation of well-enclosed apoptotic bodies. Percentage of cells undergoing apoptosis was determined microscopically from the slides used for micronuclei detection (cytogenetic damage). At least, 500 cells were counted for each experiment (experiment done twice) and percent apoptotic cells were determined as follows: % Cell Death=Na/Nt×100, where Na is the number of cells with apoptotic bodies and Nt is the total number of cells analyzed. Gene Expression Analysis by Quantitative Real Time PCR (qPCR)

[4] = test system: murine primary lung cells (epithelial cells, endothelial cells and WT fibroblasts); assay: γ-H2AX flow cytometry (FACS) in irradiated primary lung cells; type: cell-based, mouse; conditions: SDG 50 μM 6 h pre-treatment; 2 Gy; all cell types
Experimental: Fibroblasts and endothelial cells were isolated from C57/bl6 mouse. For fibroblast isolation, mouse lungs were harvested, minced, and incubated with dispase (2 mg/ml) for 45 minutes. Pieces were plated out and fibroblasts were cultured as described previously and used between passages 3 and 10. Pulmonary microvascular endothelial cells (PMVEC) were isolated from murine lungs as described previously. Briefly, freshly harvested mouse lungs were treated with collagenase followed by isolation of cells by adherence to magnetic beads coated with mAb to platelet endothelial cell adhesion molecule (PECAM). Epithelial cells (C10) cells were originally derived from a normal BALB/c mouse lung explant and are non-tumorigenic, contact-inhibited, and have alveolar type 2 cell features at early passage.
For FACS analysis, cells were trypsinized and washed with PBS. Cells were then fixed (Fix/Perm buffer, eBioscience), for 45 minutes and washed thereafter using permeabilization wash buffer (BioLegend, USA). […] Cells were washed again with wash buffer and analyzed. The CyAn ADP (Advanced Digital Processing) flow cytometer (Dako, Denmark) Coulter, Fullerton, Calif.) was used to measure γ-H2AX and positive cells were quantified using Summit Software (Dako, Denmark).

[5] = test system: murine primary lung epithelial cells; assay: Morphological detection of apoptotic cells, epithelial cells; type: cell-based, mouse; conditions: SDG 50 μM pre-treatment; irradiated; 24 h; IR alone 13.9%
Experimental: as §3, §4

COc1cc(C[C@@H](CO[C@@H]2O[C@H](CO)[C@@H](O)[C@H](O)[C@H]2O)[C@H](CO[C@@H]2O[C@H](CO)[C@@H](O)[C@H](O)[C@H]2O)Cc2ccc(O)c(OC)c2)ccc1O [SDG, secoisolariciresinol diglucoside]
Open coiled (OC) form of plasmid DNA (plasmid DNA): 18.6%±9.4
Super coiled (SC) form of plasmid DNA (plasmid DNA): 81.3%±9.4
Gene expression levels of HO1, NQO1 and GST in lung, increase ([1]; 5 mg SDG/Kg oral, 4 hours): 2-3 fold
Gene expression levels of HO1, NQO1 and GST in lung, average increase over baseline ([1]; 100 mg/Kg SDG oral, 4 hours): 6 fold
Protein levels in lung tissues ([1]; oral SDG dosing study): lower but yet significant increase
IL-1β levels [2]: significantly decreased
Malondialdehyde (MDA) levels, lipid peroxidation [2]: significantly decreased
Nitrite, marker for nitrosative stress [2]: significantly decreased
TNF-α levels [2]: significantly decreased
ROS (mouse epithelial cells): negligible levels
Extent of apoptosis [3]: significantly reduced
Number of γ-H2AX positive cells (flow cytometry) [4]: significantly abrogated
Apoptotic cells [5]: 9.9%±1.08
